The source of these data is patent US20220380431A1, “GLYCOPEPTIDE ANALOGS OF SECRETIN FAMILY PEPTIDES” (ARIZONA BOARD OF REGENTS ON BEHALF OF THE UNIVERSITY OF …, priority 2017, published 2022).

Type in all cases: cell-based
One assay has as its target T1, PAC1 (Homo sapiens, UniProt P41586).
T1 sequence (P41586 21-468): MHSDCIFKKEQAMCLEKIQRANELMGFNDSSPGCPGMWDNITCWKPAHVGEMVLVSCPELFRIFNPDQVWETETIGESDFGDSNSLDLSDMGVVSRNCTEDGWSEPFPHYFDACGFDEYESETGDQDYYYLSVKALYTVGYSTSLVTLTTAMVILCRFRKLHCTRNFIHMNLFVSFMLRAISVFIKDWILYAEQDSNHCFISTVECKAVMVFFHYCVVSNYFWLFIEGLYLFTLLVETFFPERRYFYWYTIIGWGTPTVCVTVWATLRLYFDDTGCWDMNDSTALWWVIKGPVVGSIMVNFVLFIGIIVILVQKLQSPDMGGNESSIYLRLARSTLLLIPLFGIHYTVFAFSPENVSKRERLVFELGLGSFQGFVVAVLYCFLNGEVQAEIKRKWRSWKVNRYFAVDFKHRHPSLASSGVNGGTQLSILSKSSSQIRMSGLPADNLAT
The assay can be described thus: Assay of peptides at PAC and VPAC receptors: PAC1 (EC50/EMax).

The next assay concerns the target T2, VPAC2 (Homo sapiens, UniProt P41587).
T2 sequence (P41587 24-438): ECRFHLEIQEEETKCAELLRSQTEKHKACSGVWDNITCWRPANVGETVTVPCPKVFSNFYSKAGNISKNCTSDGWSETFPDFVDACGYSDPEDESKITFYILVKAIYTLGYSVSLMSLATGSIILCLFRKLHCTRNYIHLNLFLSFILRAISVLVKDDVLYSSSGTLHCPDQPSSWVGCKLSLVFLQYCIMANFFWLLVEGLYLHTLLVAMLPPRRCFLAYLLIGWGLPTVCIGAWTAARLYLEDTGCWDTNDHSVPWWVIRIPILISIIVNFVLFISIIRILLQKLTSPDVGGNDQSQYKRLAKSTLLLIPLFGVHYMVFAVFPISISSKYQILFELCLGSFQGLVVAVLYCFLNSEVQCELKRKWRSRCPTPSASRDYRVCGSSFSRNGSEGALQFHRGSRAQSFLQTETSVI
As to the kind of experiment: Assay of peptides at PAC and VPAC receptors: VPAC2 (EC50/EMax).

A further assay addresses T3, VPAC1 (Homo sapiens, UniProt P32241).
T3 sequence (P32241 31-457): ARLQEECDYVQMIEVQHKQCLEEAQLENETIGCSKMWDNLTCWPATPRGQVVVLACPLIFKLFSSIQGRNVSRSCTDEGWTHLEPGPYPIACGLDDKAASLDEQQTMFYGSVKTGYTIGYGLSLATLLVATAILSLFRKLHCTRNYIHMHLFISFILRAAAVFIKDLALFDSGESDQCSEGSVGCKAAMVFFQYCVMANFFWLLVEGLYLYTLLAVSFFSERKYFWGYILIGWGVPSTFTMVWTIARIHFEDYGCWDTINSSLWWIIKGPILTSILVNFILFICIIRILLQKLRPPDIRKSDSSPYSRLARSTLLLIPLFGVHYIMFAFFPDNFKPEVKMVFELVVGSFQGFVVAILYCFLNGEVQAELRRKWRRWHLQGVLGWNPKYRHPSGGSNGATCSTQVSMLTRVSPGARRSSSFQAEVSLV
The assay can be described thus: Assay of peptides at PAC and VPAC receptors: VPAC1 (EC50/EMax).

Where a SMILES comes first, the peptide text is derived from it. [ ]: non-standard residue; d: D form. The star is where a group is joined. βGlc = OC[C@H]1O[C@@H](*)[C@H](O)[C@@H](O)[C@@H]1O; Nva = CCC[C@H](N)C(=O)O

The EC50 is the concentration needed to bring the measured effect to its halfway point. A low value points to an effect from little substance. Usually Emax stands for the maximal effect, on the per cent scale that the assay sets.

As to “HSDGIFTDSYSRYRKQLAVKKYLAAVd8L-Ser(Cell) [2ls98Cell]”, on PAC1, the EC50 was 0.84 nM and the “PAC1 EMax” value turned out to be 92%. Also, at VPAC2, the EC50 came out at 55.6 nM and the “VPAC2 EMax” value is listed as 91%. Also, on VPAC1, a half-maximal response (EC50) required 0.52 nM and the “VPAC1 EMax” value is recorded as 93%.

Turning to `CCC[C@H](NC(=O)[C@H](CCC(N)=O)NC(=O)[C@H](CCCCN)NC(=O)[C@H](CCCNC(=N)N)NC(=O)[C@H](Cc1ccc(O)cc1)NC(=O)[C@H](CCCNC(=N)N)NC(=O)[C@H](CO)NC(=O)[C@H](Cc1ccc(O)cc1)NC(=O)[C@H](CO)NC(=O)[C@H](CC(=O)O)NC(=O)[C@H](C)NC(=O)[C@H](Cc1ccccc1)NC(=O)[C@@H](NC(=O)CNC(=O)[C@H](CC(=O)O)NC(=O)[C@@H](CO)NC(=O)[C@@H](N)Cc1c[nH]cn1)[C@@H](C)CC)C(=O)N[C@@H](C)C(=O)N[C@H](C(=O)N[C@@H](CCCCN)C(=O)N[C@@H](CCCCN)C(=O)N[C@@H](Cc1ccc(O)cc1)C(=O)N[C@@H](CC(C)C)C(=O)N[C@@H](C)C(=O)N[C@@H](C)C(=O)N[C@H](C(=O)N[C@@H](CO[C@@H]1O[C@H](CO)[C@@H](O)[C@H](O)[C@H]1O)C(=O)N[C@@H](CC(C)C)C(N)=O)C(C)C)C(C)C` [CRA3005] (H-H[dS]DGIFADSYSRYRKQ[Nva]AVKKYLAAVS(βGlc)L-NH2), at VPAC1, the Emax is 78%.

Regarding `CCC[C@H](NC(=O)[C@H](CCC(N)=O)NC(=O)[C@H](CCCCN)NC(=O)[C@H](CCCNC(=N)N)NC(=O)[C@H](Cc1ccc(O)cc1)NC(=O)[C@H](CCCNC(=N)N)NC(=O)[C@H](CO)NC(=O)[C@H](Cc1ccc(O)cc1)NC(=O)[C@H](CO)NC(=O)[C@H](CC(=O)O)NC(=O)[C@@H](NC(=O)[C@H](Cc1ccccc1)NC(=O)[C@@H](NC(=O)CNC(=O)[C@H](CC(=O)O)NC(=O)[C@@H](CO)NC(=O)[C@@H](N)Cc1c[nH]cn1)[C@@H](C)CC)[C@@H](C)O)C(=O)N[C@@H](C)C(=O)N[C@H](C(=O)N[C@@H](CCCCN)C(=O)N[C@@H](CCCCN)C(=O)N[C@@H](Cc1ccc(O)cc1)C(=O)N[C@@H](CC(C)C)C(=O)N[C@@H](C)C(=O)N[C@@H](C)C(=O)N[C@@H](CC(C)C)C(=O)N[C@@H](CO[C@@H]1O[C@H](CO)[C@@H](O)[C@H](O)[C@H]1O)C(=O)N[C@@H](CC(C)C)C(N)=O)C(C)C` [CRA3002] (H-H[dS]DGIFTDSYSRYRKQ[Nva]AVKKYLAALS(βGlc)L-NH2), the figures for the Emax at PAC1, on VPAC2 and at VPAC1 were -79%, -95% and 93%, respectively.

With “HSDGIFTDSYSRYRKQLAVd8KKYLAAVd8L-Ser(Lact) [2ls98Lact]”, at PAC1, the concentration giving a half-maximal response (EC50) turned out to be 0.72 nM and the “PAC1 EMax” value came to 93%. For the same compound, on VPAC2, the response was half-maximal at 193 nM (EC50) and the “VPAC2 EMax” value stood at 100%. At VPAC1, the EC50 is 0.45 nM and the “VPAC1 EMax” value came out at 101%.

In the case of `CCC[C@H](NC(=O)[C@H](CCC(N)=O)NC(=O)[C@H](CCCCN)NC(=O)[C@H](CCCNC(=N)N)NC(=O)[C@H](Cc1ccc(O)cc1)NC(=O)[C@H](CCCNC(=N)N)NC(=O)[C@H](CO)NC(=O)[C@H](Cc1ccc(O)cc1)NC(=O)[C@H](CO)NC(=O)[C@H](CC(=O)O)NC(=O)[C@H](C)NC(=O)[C@H](Cc1ccccc1)NC(=O)[C@@H](NC(=O)CNC(=O)[C@H](CC(=O)O)NC(=O)[C@@H](CO)NC(=O)[C@@H](N)Cc1c[nH]cn1)[C@@H](C)CC)C(=O)N[C@@H](C)C(=O)N[C@H](C(=O)N[C@@H](CCCCN)C(=O)N[C@@H](CCCCN)C(=O)N[C@@H](Cc1ccc(O)cc1)C(=O)N[C@@H](CC(C)C)C(=O)N[C@@H](C)C(=O)N[C@@H](C)C(=O)N[C@H](C(=O)N[C@@H](CO[C@@H]1O[C@H](CO)[C@@H](O)[C@H](O)[C@H]1O)C(N)=O)C(C)C)C(C)C` [CRA3004] (H-H[dS]DGIFADSYSRYRKQ[Nva]AVKKYLAAVS(βGlc)-NH2), on VPAC1, the EC50 was determined as 1370 nM and the Emax is 85%.
